From patent publication US9193986B2, “Method for marking or immobilising a target structure” (Fraunhofer-Gesellschaft Zur Forderung Der Angewandten …, priority 2012, dated 2015)
Non-standard residues stand in square brackets, D forms with d. Residues, ends and D or L forms follow the SMILES beside them. No end group written: not given here. *: point of attachment. FITC = O=C1OC2(c3ccc(O)cc3Oc3cc(O)ccc32)c2ccc(NC(=S)*)cc21; Dopa = N[CH](Cc1ccc(O)c(O)c1)C(=O)O; X1 = O=C1NC2CSC(CCCCC(=O)*)C2N1

Assays:
[1] = test system: integrin αvβ6 expressing cells (HT1299, SVEC); assay: Marking of integrin αvβ6 expressing cells with DOPA/FITC polypeptide, with and without laccase, FACS fluorescence after washing; format: cell-based; conditions: 5 μM polypeptide, without addition of laccase, washed three times with PBS, FIG. 1
Procedure: Marking of integrin αvβ6 expressing cells:
Cell type: Cell lines HT1299 (lung tumor), HUVEC, SVEC
Polypeptide for the marking: Ac-SPRGDLAVLGHK(FITC)GG-DOPA-G, SEQ ID NO: 1
Polypeptide solution: 4 mg/ml polypeptide in water corresponding to 2 mM
20 mg/ml laccase from Trameters versicolor, 20 U/mg, ASA Spezialenzyme GmbH, Wolfenbüttel
All FAC measurements were made on a Cytomics FC500 (Beckman Coulter).
(§1) The cells were in each case washed twice with PBS and then taken up in an amount of ca. 10^5 cells/ml in PBS. 950 μl portions of the solution were added to 1-ml-FACS-test tubes. Marked polypeptides with and without prior treatment with laccase, were then added according to the following Table 1.
(§2) For this, 40 μl NaAc solution, 105 μl water, 15 μl peptide solution and 120 μl laccase were added in a typical […] polypeptide batch. Samples without laccase contained the corresponding additional volume of water, samples with other polypeptide concentrations contained correspondingly more polypeptide solution (cf. Example 2). After an incubation time of 1 minute 50 μl were added in each case to the cell suspensions or placed in the FACS test tubes.
(§3) After an incubation time of at least 15 minutes the cells were washed three times with 2 ml PBS in the test tube and the fluorescence of the cells was then measured on a cell sorter. The total fluorescence of the cells was measured.

[2] = test system: cell lines expressing αvβ6 integrin (HUVEC, SVEC, HT1299); assay: Dependence of the binding on the polypeptide concentration (laccase-activated marking, FACS); format: cell-based; conditions: different concentrations, FIG. 2
Procedure: as §1, §2, §3
Corresponding to the above experimental procedure (Example 1) various cell lines, all of which express αvβ6 integrin, were marked with different polypeptide concentrations.

Albumen lysozyme = Albumen lysozyme (Gallus gallus, UniProt P00698); assay: Laccase-mediated coupling of structures with DOPA residue to a protein, MS analysis; format: biochemical; conditions: for formation of covalent adduct with lysozyme: equimolar and ten-fold excess, laccase, overnight, room temperature, pH 7.0; for conversion of lysozyme to the adduct: excess of the DOPA compound (ten-fold), FIGS. 5 and 8
Procedure: The following solutions were prepared in 10 mM phosphate buffer pH 7.0: • a) Albumen lysozyme 1 mg/ml, corresponding to 70 μM (solution 1) • b) Compound A (biotin-DOPA) 1 mg in 3 mL, corresponding to 700 μM (solution 2) and a 70 μM dilution (solution 3) • c) Compound B (biotin-RGD-DOPA) 1,2 mg in 2 ml, corresponding to 700 μM (solution 4) and a 70 μM dilution (solution 5) • d) Laccase (Trametes vers., ASA Spezialenzyme GmbH) 1 mg/ml corresponding to 20 u/ml (solution 6)
The reaction was started by mixing 500 μl lysozyme solution (Solution 1) with in each case 500 μl of solution 2 to solution 5 (i.e. in each case equimolar and ten-fold excess) and addition and mixing in 10 μl/0.2 u laccase (solution 6). Lysozyme with 500 μl 10 mM phosphate buffer pH 7.0 and laccase (solution 6) was used as control. The samples were incubated overnight at room temperature and the next day an aliquot was freed from low molecular weight constituents and salts using a desalting column (Micro Bio-Spin P6, BioRad) equilibrated with deionised waters.
The thereby prepared reaction product was analysed in an AB Sciex TOF/TOF™ 5800 system.

Compound: Ac-SPRGDLAVLGHK(FITC)GG-DOPA-G (Ac-SPRGDLAVLGHK(FITC)GG[Dopa]G) [polypeptide]
- retention of the fluorescent polypeptide on the cells after washing [1]: can be washed again from the cells
- binding to cells as a function of polypeptide concentration [2]: bind depending on the concentration

Compound: N=C(N)NCCCC(NC(=O)CNC(=O)CCCCC1SCC2NC(=O)NC21)C(=O)NCC(=O)NC(CC(=O)O)C(=O)NC(Cc1ccc(O)c(O)c1)C(=O)NCC(=O)O (stereo not drawn) [Compound B, biotin-RGD-DOPA] (X1-GRGD[Dopa]G-OH; configuration not given here)
- formation of covalent adduct with lysozyme (Albumen lysozyme): expected reaction products were found
- conversion of lysozyme to the adduct (Albumen lysozyme): a complete conversion was not achieved

Compound: NC(=O)C(Cc1ccc(O)c(O)c1)NC(=O)CCCCC1SCC2NC(=O)NC21 (stereo not drawn) [Compound A]
- formation of covalent adduct with lysozyme (Albumen lysozyme): expected reaction products were found
- conversion of lysozyme to the adduct (Albumen lysozyme): a complete conversion was not achieved
